The source of these data is US11649255B2, “Indazoles as hematopoietic progenitor kinase 1 (HPK1) inhibitors and methods using same” (1st Biotherapeutics, Inc., priority 2020, dated 2023).

Like-named read-outs stand apart in the source and are kept apart here. Bounds are passed on as bounds.

For one test, the target named is recombinant human HPK1 (Homo sapiens (Human), UniProt Q92918). The test can be described thus: HPK1 kinase assay (ADP-Glo). It counts as biochemical. Particulars: 25 μM ATP, MBP substrate. The procedure, abridged:
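Activity was read as ADP formed, detected by ADP-Glo luminescence after the reaction of 5 ng recombinant human HPK1 with MBP and ATP (stocks 0.5 μg/μl and 25 μM) for 40 min at 30 °C. Buffer was Tris pH 7.5 with MgCl2, BSA and DTT, with compound in 0.5% DMSO. IC50 came from inhibition curves.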

Test [1] deals with human peripheral blood pan T cells. The test can be described thus: IFNγ and IL-2 analysis of human peripheral pan T cells. It counts as cell-based. The settings on record: T-cell, CD3/CD28 bead stimulation, 100 nM Prostaglandin E2, 24 hr. The procedure, abridged: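 Human peripheral blood pan T cells (8×10^4) were preincubated 1 h with compounds plus 100 nM PGE2. They were then activated with anti-CD3/CD28 Dynabeads at a 1:3 cell:bead ratio. IFNγ and IL-2 were measured on a Meso Scale Discovery platform.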

[2] abbreviates: IFNγ secretion, read-out: IFNγ (EC50).
Where [3] appears, read: IL-2 secretion, read-out: IL-2 (EC50).

The term IC50 denotes the concentration that gives 50% inhibition. In general, EC50 refers to the concentration at which the effect is half-maximal.

Chain of recombinant human HPK1 (Q92918 whole entry): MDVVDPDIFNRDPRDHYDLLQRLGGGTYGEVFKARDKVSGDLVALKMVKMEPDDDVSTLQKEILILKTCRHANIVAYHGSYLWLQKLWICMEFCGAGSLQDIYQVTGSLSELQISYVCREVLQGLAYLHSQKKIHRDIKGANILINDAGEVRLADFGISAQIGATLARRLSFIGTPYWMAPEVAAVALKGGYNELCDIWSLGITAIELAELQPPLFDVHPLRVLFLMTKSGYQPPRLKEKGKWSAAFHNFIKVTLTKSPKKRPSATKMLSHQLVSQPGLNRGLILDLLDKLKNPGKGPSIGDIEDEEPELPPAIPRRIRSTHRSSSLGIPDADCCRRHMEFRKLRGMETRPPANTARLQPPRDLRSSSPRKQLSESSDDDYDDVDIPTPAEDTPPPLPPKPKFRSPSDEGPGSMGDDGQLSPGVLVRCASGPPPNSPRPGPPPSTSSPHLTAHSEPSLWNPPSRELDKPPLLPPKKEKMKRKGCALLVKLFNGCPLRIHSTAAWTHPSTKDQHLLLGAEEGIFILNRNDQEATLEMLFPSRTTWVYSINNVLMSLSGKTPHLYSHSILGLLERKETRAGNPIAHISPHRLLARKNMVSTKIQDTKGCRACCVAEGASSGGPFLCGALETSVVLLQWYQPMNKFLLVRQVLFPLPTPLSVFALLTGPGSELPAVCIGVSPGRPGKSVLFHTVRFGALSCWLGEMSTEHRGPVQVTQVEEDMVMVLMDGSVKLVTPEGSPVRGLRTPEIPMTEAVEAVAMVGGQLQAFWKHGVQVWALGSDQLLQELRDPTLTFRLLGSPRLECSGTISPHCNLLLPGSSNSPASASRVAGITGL

For `CSc1c(F)c(SC)c2[nH]ncc2c1-c1ccn2nc(NC(=O)[C@@H]3C[C@@H]3F)cc2c1` [Example 529, (1S,2S)-2-fluoro-N-(5-(6-fluoro-5,7-bis(methylthio)-1H-indazol-4-yl)pyrazolo[1,5-a]pyridin-2-yl)cyclopropane-1-carboxamide], the half-maximal inhibitory concentration (IC50) on recombinant human HPK1 is less than 100 nM. The EC50 in test [1] (setting [2]) and in test [1] (setting [3]) was less than 200 nM each time.

As for `CC(=O)N(C)c1c(F)c(Cl)c(-c2ccn3nc(NC(=O)[C@@H]4C[C@@H]4F)cc3c2)c2cn[nH]c12` [Example 552, (1S,2S)-N-(5-(5-chloro-6-fluoro-7-(N-methylacetamido)-1H-indazol-4-yl)pyrazolo[1,5-a]pyridin-2-yl)-2-fluorocyclopropane-1-carboxamide], at recombinant human HPK1, the IC50 is less than 100 nM. For the same compound, the EC50 in test [1] (setting [2]) and in test [1] (setting [3]) was 200 to 1000 nM throughout.

Turning to `O=C(Nc1cc2cc(-c3c(Cl)c(F)c(SCCO)c4[nH]ncc34)ccn2n1)[C@@H]1C[C@@H]1F` [Example 520, (1S,2S)-N-(5-(5-chloro-6-fluoro-7-((2-hydroxyethyl)thio)-1H-indazol-4-yl)pyrazolo[1,5-a]pyridin-2-yl)-2-fluorocyclopropane-1-carboxamide], the IC50 at recombinant human HPK1 was less than 100 nM. Also, in test [1] (setting [2]), the EC50 lay in the range of 200 to 1000 nM.

As for `CSc1c(F)c(N(C)C)c2[nH]ncc2c1-c1ccc2nc(NC(=O)[C@@H]3C[C@@H]3F)sc2c1` [Example 110, (1S,2S)-N-(6-(7-(dimethylamino)-6-fluoro-5-(methylthio)-1H-indazol-4-yl)benzo[d]thiazol-2-yl)-2-fluorocyclopropane-1-carboxamide], the half-inhibitory concentration (IC50) on recombinant human HPK1 is less than 100 nM. Further, the EC50 in test [1] (setting [2]) was less than 200 nM.

With `CCc1c(F)c(N(C)CC)c2[nH]ncc2c1-c1ccc2nc(NC(=O)[C@@H]3C[C@@H]3F)cn2c1` [Example 326, (1S,2S)-N-(6-(5-ethyl-7-(ethyl(methyl)amino)-6-fluoro-1H-indazol-4-yl)imidazo[1,2-a]pyridin-2-yl)-2-fluorocyclopropane-1-carboxamide], at recombinant human HPK1, the 50% inhibitory concentration (IC50) is less than 100 nM. The EC50 in test [1] (setting [2]) and in test [1] (setting [3]) was 200 to 1000 nM throughout.

For the compound `CSc1c(F)cc2[nH]ncc2c1-c1ccc2nc(NC(=O)[C@@H]3C[C@@H]3F)sc2c1` [Example 105, (1S,2S)-2-fluoro-N-(6-(6-fluoro-5-(methylthio)-1H-indazol-4-yl)benzo[d]thiazol-2-yl)cyclopropane-1-carboxamide], the IC50 on recombinant human HPK1 is less than 100 nM. For the same compound, the EC50 in test [1] (setting [2]) was 200 to 1000 nM; in test [1] (setting [3]), more than 1000 nM.

On to `CSc1c(F)c(C)c(-c2ccn3nc(NC(=O)[C@@H]4C[C@@H]4F)cc3c2)c2cn[nH]c12` [Example 488, (1S,2S)-2-fluoro-N-(5-(6-fluoro-5-methyl-7-(methylthio)-1H-indazol-4-yl)pyrazolo[1,5-a]pyridin-2-yl)cyclopropane-1-carboxamide], for which, at recombinant human HPK1, the IC50 is less than 100 nM. The concentration for a half-maximal effect (EC50) in test [1] (setting [2]) is 200 to 1000 nM.

For the compound `CN(C)C(=O)c1c(F)c(Cl)c(-c2ccn3nc(NC(=O)[C@@H]4C[C@@H]4F)cc3c2)c2cn[nH]c12` [Example 556, 5-chloro-6-fluoro-4-(2-((1S,2S)-2-fluorocyclopropane-1-carboxamido)pyrazolo[1,5-a]pyridin-5-yl)-N,N-dimethyl-1H-indazole-7-carboxamide], at recombinant human HPK1, the 50% inhibitory concentration (IC50) is less than 100 nM. Further, the results for the concentration for a half-maximal effect (EC50) in test [1] (setting [2]) and in test [1] (setting [3]) were less than 200 nM and 200 to 1000 nM, respectively.

Turning to `CCc1c(F)c(N(C)C)c2[nH]ncc2c1-c1ccc2nc(NC(=O)[C@@H]3C[C@@H]3F)sc2n1` [Example 161, (1S,2S)-N-(5-(7-(dimethylamino)-5-ethyl-6-fluoro-1H-indazol-4-yl)thiazolo[5,4-b]pyridin-2-yl)-2-fluorocyclopropane-1-carboxamide], the half-inhibitory concentration (IC50) at recombinant human HPK1 is less than 100 nM. Also, the EC50 in test [1] (setting [2]) lay within 200 to 1000 nM.

Take `CN(c1c(F)c(Cl)c(-c2ccn3nc(NC(=O)[C@@H]4C[C@@H]4F)cc3c2)c2cn[nH]c12)C1CCC(O)CC1` (stereo partly drawn) [Example 503, (1S,2S)-N-(5-(5-chloro-6-fluoro-7-((4-hydroxycyclohexyl)(methyl)amino)-1H-indazol-4-yl)pyrazolo[1,5-a]pyridin-2-yl)-2-fluorocyclopropane-1-carboxamide]: the 50% inhibitory concentration (IC50) on recombinant human HPK1 is less than 100 nM. Further, the EC50 in test [1] (setting [2]) lay within 200 to 1000 nM.

In the case of `CCc1c(F)c(SC)c2[nH]ncc2c1-c1ccc2nc(NC(=O)[C@@H]3C[C@@H]3F)sc2n1` [Example 162, (1S,2S)-N-(5-(5-ethyl-6-fluoro-7-(methylthio)-1H-indazol-4-yl)thiazolo[5,4-b]pyridin-2-yl)-2-fluorocyclopropane-1-carboxamide], at recombinant human HPK1, the IC50 is less than 100 nM. The EC50 in test [1] (setting [2]) was 200 to 1000 nM.

As to `CN(C)c1c(F)c(Cl)c(-c2ccc3nc(NC(=O)[C@H]4C[C@@H]4F)cn3c2)c2cn[nH]c12` [Example 332, (1R,2S)-N-(6-(5-chloro-7-(dimethylamino)-6-fluoro-1H-indazol-4-yl)imidazo[1,2-a]pyridin-2-yl)-2-fluorocyclopropane-1-carboxamide], on recombinant human HPK1, the 50% inhibitory concentration (IC50) was less than 100 nM. Also, the EC50 in test [1] (setting [2]) and in test [1] (setting [3]) was 200 to 1000 nM in each case.

Consider `CN(c1c(F)c(Cl)c(-c2ccn3nc(NC(=O)[C@@H]4C[C@@H]4F)cc3c2)c2cn[nH]c12)C1CC(O)C1` (stereo partly drawn) [Example 561, (1S,2S)-N-(5-(5-chloro-6-fluoro-7-((3-hydroxycyclobutyl)(methyl)amino)-1H-indazol-4-yl)pyrazolo[1,5-a]pyridin-2-yl)-2-fluorocyclopropane-1-carboxamide], for which the IC50 on recombinant human HPK1 is less than 100 nM. Moreover, the concentration for a half-maximal effect (EC50) in test [1] (setting [2]) and in test [1] (setting [3]) was 200 to 1000 nM throughout.

For `CN(C)c1c(F)c(Cl)c(-c2ccc3nc(NC(=O)[C@@H]4C[C@@H]4F)sc3n2)c2cn[nH]c12` [Example 172, (1S,2S)-N-(5-(5-chloro-7-(dimethylamino)-6-fluoro-1H-indazol-4-yl)thiazolo[5,4-b]pyridin-2-yl)-2-fluorocyclopropane-1-carboxamide], the IC50 on recombinant human HPK1 was less than 100 nM. The EC50 in test [1] (setting [2]) is 200 to 1000 nM.

Turning to `CCOc1c(F)c(SC)c(-c2ccn3nc(NC(=O)[C@@H]4C[C@@H]4F)cc3c2)c2cn[nH]c12` [Example 543, (1S,2S)-N-(5-(7-ethoxy-6-fluoro-5-(methylthio)-1H-indazol-4-yl)pyrazolo[1,5-a]pyridin-2-yl)-2-fluorocyclopropane-1-carboxamide], the IC50 on recombinant human HPK1 is less than 100 nM. The values for the EC50 in test [1] (setting [2]) and in test [1] (setting [3]) were less than 200 nM and 200 to 1000 nM, respectively.

Regarding `CCc1c(F)c(N(C)CC)c2[nH]ncc2c1-c1ccn2nc(NC(=O)[C@@H]3C[C@@H]3F)cc2c1` [Example 525, (1S,2S)-N-(5-(5-ethyl-7-(ethyl(methyl)amino)-6-fluoro-1H-indazol-4-yl)pyrazolo[1,5-a]pyridin-2-yl)-2-fluorocyclopropane-1-carboxamide], on recombinant human HPK1, the IC50 was less than 100 nM. Further, the results for the EC50 in test [1] (setting [2]) and in test [1] (setting [3]) were less than 200 nM and 200 to 1000 nM, respectively.

`CCOc1c(F)c(C)c(-c2ccn3nc(NC(=O)[C@@H]4C[C@@H]4F)cc3c2)c2cn[nH]c12` [Example 509, (1S,2S)-N-(5-(7-ethoxy-6-fluoro-5-methyl-1H-indazol-4-yl)pyrazolo[1,5-a]pyridin-2-yl)-2-fluorocyclopropane-1-carboxamide]: the IC50 at recombinant human HPK1 is less than 100 nM. The EC50 is less than 200 nM in test [1] (setting [2]) and 200 to 1000 nM in test [1] (setting [3]).

Take `CSc1c(F)c(Cl)c(-c2ccc3nc(NC(=O)[C@@H]4C[C@@H]4F)sc3n2)c2cn[nH]c12` [Example 174, (1S,2S)-N-(5-(5-chloro-6-fluoro-7-(methylthio)-1H-indazol-4-yl)thiazolo[5,4-b]pyridin-2-yl)-2-fluorocyclopropane-1-carboxamide]: at recombinant human HPK1, the IC50 was less than 100 nM. In test [1] (setting [2]), the 50% effective concentration (EC50) was in the range of 200 to 1000 nM.

Consider `CN(C)c1c(F)c(Cl)c(-c2ccc3nc(NC(=O)[C@H]4C[C@H]4F)cn3c2)c2cn[nH]c12` [Example 334, (1R,2R)-N-(6-(5-chloro-7-(dimethylamino)-6-fluoro-1H-indazol-4-yl)imidazo[1,2-a]pyridin-2-yl)-2-fluorocyclopropane-1-carboxamide], for which the IC50 on recombinant human HPK1 was less than 100 nM. In addition, the EC50 in test [1] (setting [2]) and in test [1] (setting [3]) was 200 to 1000 nM in each case.

`CSc1c(F)cc2[nH]ncc2c1-c1ccn2nc(NC(=O)C3CC3)cc2c1` [Example 569, N-(5-(6-fluoro-5-(methylthio)-1H-indazol-4-yl)pyrazolo[1,5-a]pyridin-2-yl)cyclopropanecarboxamide]: the IC50 at recombinant human HPK1 is less than 100 nM. In addition, the EC50 in test [1] (setting [2]) is 200 to 1000 nM; in test [1] (setting [3]), more than 1000 nM.

Take `CN(c1c(F)c(Cl)c(-c2ccc3nc(NC(=O)[C@@H]4C[C@@H]4F)cn3c2)c2cn[nH]c12)C1CC1` [Example 361, (1S,2S)-N-(6-(5-chloro-7-(cyclopropyl(methyl)amino)-6-fluoro-1H-indazol-4-yl)imidazo[1,2-a]pyridin-2-yl)-2-fluorocyclopropane-1-carboxamide]: the half-inhibitory concentration (IC50) at recombinant human HPK1 was less than 100 nM. Besides, the results for the EC50 in test [1] (setting [2]) and in test [1] (setting [3]) were 200 to 1000 nM and more than 1000 nM, respectively.

On to `CC(=O)N(C)c1c(F)c(Cl)c(-c2ccc3nc(NC(=O)[C@@H]4C[C@@H]4F)cn3c2)c2cn[nH]c12` [Example 316, (1S,2S)-N-(6-(5-chloro-6-fluoro-7-(N-methylacetamido)-1H-indazol-4-yl)imidazo[1,2-a]pyridin-2-yl)-2-fluorocyclopropane-1-carboxamide], for which the concentration for half-maximal inhibition (IC50) at recombinant human HPK1 is less than 100 nM. Besides, the EC50 was 200 to 1000 nM in test [1] (setting [2]) and more than 1000 nM in test [1] (setting [3]).

`CSc1c(F)cc2[nH]ncc2c1-c1ccn2nc(NC(=O)[C@@H]3C[C@@H]3F)cc2c1` [Example 530, (1S,2S)-2-fluoro-N-(5-(6-fluoro-5-(methylthio)-1H-indazol-4-yl)pyrazolo[1,5-a]pyridin-2-yl)cyclopropane-1-carboxamide]: the half-inhibitory concentration (IC50) on recombinant human HPK1 was less than 100 nM. The EC50 in test [1] (setting [2]) and in test [1] (setting [3]) was 200 to 1000 nM each time.
